Test results: PMC9558053, “Development of a novel high-throughput screen for the identification of new inhibitors of protein S-acylation” (The Journal of Biological Chemistry, 2022)

What was measured:
[1] = test system: endogenous SNAP23 S-acylation in HEK293T cells; assay: mPEG-click S-acylation of endogenous SNAP23 in HEK293T cells; type: cell-based, human; details: 25 and 50 μM, 4 h pretreatment + 4 h labeling
Excerpt: Finally, we tested whether TTZ-1 and TTZ-2 were able to block the S-acylation of endogenous proteins in the absence of zDHHC enzyme overexpression. In order to detect the S-acylation of endogenous proteins, we used mPEG-click, a technique that we developed recently ([49]) that is better suited for the click chemistry–based analysis of S-acylation of endogenously expressed proteins. In this assay, cells are labeled with either palmitate (C16:0), or C16:0-azide, lysed, and then subjected to click chemistry with alkyne-mPEG 5K. The addition of mPEG 5K moieties to S-acylated proteins increases their apparent molecular weight, which can be detected directly by immunoblotting. HEK293T cells were pretreated for 4 h with either TTZ-1 or TTZ-2 at 25 and 50 μM and then labeled with fatty acids for another 4 h in the presence of the compounds. We first assessed the S-acylation of endogenous SNAP23 as it is a close relative of SNAP25 (SNAP25 is not expressed in the non-neuronal HEK293T cell line) ([50], [51]). […]
Figure 10 Activity of TTZ-1 and TTZ-2 against the S-acylation of endogenous proteins in mammalian cells. […] The data were quantified, and the graphs below each set of membranes show mean ± SEM of normalized S-acylation of either endogenous SNAP23 (A) or endogenous calnexin (B). […]

purified human zDHHC2 = biological target: T1, purified human zDHHC2 (Homo sapiens, UniProt Q9UIJ5); assay: In vitro SNAP25 S-acylation by purified zDHHC2, copper-free click chemistry, ELISA; type: biochemical; details: for inhibition at 3 µM / inhibition at 10 µM: in vitro ELISA, UoS, read-out: zDHHC2-mediated SNAP25 S-acylation inhibition (%); for inhibition at 3 µM: compound 3 μM; for inhibition at 10 µM: compound 10 μM; for IC50 / SNAP25 S-acylation by purified zDHHC2, SDS-PAGE and Western blotting: in vitro; for IC50: ELISA, concentrations 0.3 to 30 μM, read-out: zDHHC2-mediated substrate (SNAP25) S-acylation IC50 (95 CI); for SNAP25 S-acylation by purified zDHHC2, SDS-PAGE and Western blotting: selected samples at 3 or 10 μM
T1 construct: StrepII (C); made in house; host or cells: Sf9 TriEX insect cells, baculovirus
T1 sequence (Q9UIJ5 1-367): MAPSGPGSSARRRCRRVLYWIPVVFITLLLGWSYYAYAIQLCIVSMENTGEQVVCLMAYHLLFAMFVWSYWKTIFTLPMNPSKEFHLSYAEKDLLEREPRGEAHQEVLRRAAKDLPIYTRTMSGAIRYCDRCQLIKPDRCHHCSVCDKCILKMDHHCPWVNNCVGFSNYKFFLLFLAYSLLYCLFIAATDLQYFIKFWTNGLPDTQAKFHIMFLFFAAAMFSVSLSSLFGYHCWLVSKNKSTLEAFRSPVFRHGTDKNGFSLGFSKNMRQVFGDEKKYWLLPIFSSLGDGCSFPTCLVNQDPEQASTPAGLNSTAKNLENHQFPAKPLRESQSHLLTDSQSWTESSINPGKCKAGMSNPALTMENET

Row | SMILES | S-acylation of endogenous SNAP23 [1] | inhibition at 3 µM (purified human zDHHC2) | inhibition at 10 µM (purified human zDHHC2) | IC50 (purified human zDHHC2) | SNAP25 S-acylation by purified zDHHC2, SDS-PAGE and Western blotting (purified human zDHHC2)
1 | CCCCCCCOc1ccc(C(=O)Nc2cccc3c2OC(c2nnn[nH]2)CN3)cc1 (stereo not shown) [TTZ-1, N-(2-(1H-Tetrazol-5-yl)-3,4-dihydro-2H-benzo[b][1,4]oxazin-8-yl)-4-(heptyloxy)benzamide] | significant reduction | 30% | 77% | 4.7 µM | confirmed the inhibitory activity
2 | O=C(Nc1cccc2c1OC(c1nnn[nH]1)CN2)c1ccc(OCCCCc2ccccc2)cc1 (stereo not shown) [TTZ-2, N-(2-(1H-Tetrazol-5-yl)-3,4-dihydro-2H-benzo[b][1,4]oxazin-8-yl)-4-(4-phenylbutoxy)benzamide] | significant reduction | 64% | 81% | 1.3 µM | confirmed the inhibitory activity
